In patent US4859658A, “Compound compositions with improved analgesic antipyretic and anti-inflammatory activity” (Ricerfarma S.R.L., priority 1987, dated 1989):
Like-named read-outs stand apart in the source and are kept apart here.

Columns and labels:
[1] = system: yeast-induced fever; experiment: Anti-pyretic effect (yeast-induced) test in rats; format: in vivo, rat; conditions: oral gavage
Method: Anti-pyretic effect of Combination of Thiocetamol with Aspirin
(yeast-induced) test in rats
I. TEST MATERIALS: Thioacetamol, Aspirin
1. Fever in test animals was induced by subcutaneous
injection of yeast (10% in saline). Basal
rectal temperature (BRT) was determined in all
test animals with the aid of a YSI thermistor probe
2. Four hours after the yeast injection a test drug
suspended in 1% methyl cellulose (MC), was
administered by oral gavage to groups of
male rats (8 rats/group). Controls were
3. Measurements of rectal temperatures (ERT) in
response to the various treatments, were
carried out at 1, 3 and 5 hours after
the test drug administration.
Evaluation of anti-pyretic activity was based on the
temperature difference (Δt) between BRT and ERT at
each of the three respective test periods
for each treatment group.
Data was calculated by ranking Δt values obtained in
test drug-treated and control rats and expressed

[2] = single oral dose, cited from earlier work
[3] = cited from earlier work; for ED50: each compound alone, as reported by Maruyama Y. et al
[4] = cited from earlier work; for LD50: in vivo
[5] = system: carrageenin-induced oedema; experiment: Anti-inflammatory effect, rat paw oedema test; format: in vivo; conditions: oral gavage
Method: I. TEST MATERIALS: Thioacetamol, Indomethacin (Indomet)
The test drugs, suspended in 1% methyl cellulose (MC),
were administered by oral gavage to groups of male rats
(6 rats/group). Controls were given MC only.
2. Three hours following the test drug administration,
0.1 ml carrageenin (1% in saline) was injected
sub-plantar into the right hind paw. Identically
saline-injected left hind paw served
3. Readings were taken on each paw 3 hours following
injection of the test drug. The volume of both
hind paws was measured with an Hg-displacement
Volumeter (Huge, Basile, Italy).
Evaluation of anti-inflammatory activity was based on
the difference in volume (ΔV) between
the right (carrageenin-induced oedema) and left
(saline-control) hind paws.
Data was calculated by ranking ΔV values obtained
in drug-treated and control rats and expressed
percent increase over control for normal

[6] = in vivo, 500 mg/kg
Text: It must be also pointed out that the combination of very low doses of each component is not toxic.

[7] = system: hepatic parenchyma; conditions: compared with parent paracetamol; cited from earlier work

Compound: CC(=O)Oc1ccccc1C(=O)O [Aspirin]
- Δt at 1 hour ([1]; 50 mg/kg): 86%
- Δt at 3 hour ([1]; 50 mg/kg): 83%
- Δt at 5 hour ([1]; 50 mg/kg): 67%
- Δt at 1 hour ([1]; 100 mg/kg): 67%
- Δt at 3 hour ([1]; 100 mg/kg): 55%
- Δt at 5 hour ([1]; 100 mg/kg): 56%
- Δt at 1 hour ([1]; 200 mg/kg): 49%
- Δt at 3 hour ([1]; 200 mg/kg): 29%
- Δt at 5 hour ([1]; 200 mg/kg): 19%
- Gastric lesions ([2]; 100 mg/kg): 0%
- Intestinal lesions ([2]; 100 mg/kg): 0%
- Gastric lesions ([2]; 300 mg/kg): 60%
- Intestinal lesions ([2]; 300 mg/kg): 10%
- Gastric lesions ([2]; 600 mg/kg): 100%
- Intestinal lesions ([2]; 600 mg/kg): 10%
- ED50 [3]: 500 mg/kg
- LD50 [4]: 1000 mg/kg

Compound: O=C(O)Cc1ccccc1Nc1c(Cl)cccc1Cl [Diclofenac]
- ED50 [3]: 5 mg/kg

Compound: CC(C)Cc1ccc(C(C)C(=O)O)cc1 (stereo not drawn) [Ibuprofen]
- ED50 [3]: 60 mg/kg

Compound: COc1ccc2c(c1)c(CC(=O)O)c(C)n2C(=O)c1ccc(Cl)cc1 [Indomethacin]
- ΔV (percent over control) ([5]; 1 mg/kg): 85%
- ΔV (percent over control) ([5]; 2 mg/kg): 63%
- ΔV (percent over control) ([5]; 4 mg/kg): 58%
- Gastric lesions ([2]; 3 mg/kg): 0%
- Intestinal lesions ([2]; 3 mg/kg): 0%
- Gastric lesions ([2]; 10 mg/kg): 100%
- Intestinal lesions ([2]; 10 mg/kg): 30%
- anti-inflammatory dose (ED50) ([3]; as reported): 3.5 mg/kg
- ED50 [3]: 3.6 mg/kg
- LD50 [4]: 15.2 mg/kg

Compound: CC(=O)Nc1ccc(OC(=O)c2cccs2)cc1 [Thiocetamol, p-acetamidophenyl thiophene-2-carboxylate]
- ΔV (percent over control) ([5]; 150 mg/kg): 90%
- ΔV (percent over control) ([5]; 300 mg/kg): 70%
- ΔV (percent over control) ([5]; 600 mg/kg): 62%
- Δt at 1 hour ([1]; 75 mg/kg): 86%
- Δt at 3 hour ([1]; 75 mg/kg): 91%
- Δt at 5 hour ([1]; 75 mg/kg): 91%
- Δt at 1 hour ([1]; 150 mg/kg): 47%
- Δt at 3 hour ([1]; 150 mg/kg): 96%
- Δt at 5 hour ([1]; 150 mg/kg): 84%
- Δt at 1 hour ([1]; 300 mg/kg): 26%
- Δt at 3 hour ([1]; 300 mg/kg): 40%
- Δt at 5 hour ([1]; 300 mg/kg): 61%
- toxic effects [6]: without any toxic effects
- toxicity towards the hepatic parenchyma [7]: remarkable lower toxicity towards the hepatic parenchyma
- acute median lethal dose (LD50) ([4]; compared with parent paracetamol, in words): far lower than that of the parent paracetamol
- LD50 [4]: around 2000 mg/kg
